4 compounds from ChEMBL document CHEMBL5137108, “Calofolic Acid-A from Calophyllum scriblitifolium Bark Has Vasorelaxant Activity via Indirect PKA Activation Caused by PI-3 Kinase Inhibition in Rat Vascular Smooth Muscle Cells” (J Nat Prod, 2022) can be followed below.

pIC50: −log10 of the molar value. Calls of active or inactive are those of the source. The rule behind the calls is not given here.

Series [1] has as its system VSMC. Put plainly: Activation of PKA substrate phosphorylation in Wistar rat VSMCs at 10 uM incubated for 60 mins in the presence of LY294002 by Western blot analysis. The series is classed as cell-based. As to conditions: filed as activator. (In western blotting, separated proteins are transferred to a membrane and probed.)
Series [2] has as its target cAMP-dependent protein kinase (PKA) (Homo sapiens) (UniProt P22694+P17612+P22612). Put plainly: Activation of PKA substrate phosphorylation in HEK293 cells incubated for 60 mins by Western blot analysis. The series is classed as cell-based. As to conditions: filed as activator.
In series [3] the test system is VSMC. Put plainly: Inhibition of isoproterenol-induced AKT phosphorylation at Ser473 residue in Wistar rat VSMCs at 50 uM preincubated for 60 mins followed by ISO stimulation and measured upto 30 mins by Western blot analysis. The note with it: time 90.0 min. The series is classed as cell-based.
Series [4] has as its system VSMC. Kind of series: Activation of PKA substrate phosphorylation in Wistar rat VSMCs incubated for 60 mins by Western blot analysis. The series is classed as cell-based. The note with it: filed as activator, dose 5-50 µM, DDE = dose-dependent effect.
The test system of series [5] is VSMC. Put plainly: Activation of PKA substrate phosphorylation in isoproterenol-induced Wistar rat VSMCs at 10 uM preincubated for 60 mins followed by isoproterenol stimulation and measured upto 20 mins by Western blot analysis. It counts as cell-based. As to conditions: filed as activator, time 80.0 min.
Series [6] concerns VSMC. Kind of series: Activation of HSP20 phosphorylation in isoproterenol-induced Wistar rat VSMCs at 50 uM preincubated for 60 mins followed by ISO stimulation and measured upto 30 mins by Western blot analysis. The series is classed as cell-based. The note with it: filed as activator, time 90.0 min.
Series [7] has as its target T1, Protein phosphatase 1 regulatory subunit 12A (Rattus norvegicus) (UniProt Q10728).
T1 sequence (whole entry): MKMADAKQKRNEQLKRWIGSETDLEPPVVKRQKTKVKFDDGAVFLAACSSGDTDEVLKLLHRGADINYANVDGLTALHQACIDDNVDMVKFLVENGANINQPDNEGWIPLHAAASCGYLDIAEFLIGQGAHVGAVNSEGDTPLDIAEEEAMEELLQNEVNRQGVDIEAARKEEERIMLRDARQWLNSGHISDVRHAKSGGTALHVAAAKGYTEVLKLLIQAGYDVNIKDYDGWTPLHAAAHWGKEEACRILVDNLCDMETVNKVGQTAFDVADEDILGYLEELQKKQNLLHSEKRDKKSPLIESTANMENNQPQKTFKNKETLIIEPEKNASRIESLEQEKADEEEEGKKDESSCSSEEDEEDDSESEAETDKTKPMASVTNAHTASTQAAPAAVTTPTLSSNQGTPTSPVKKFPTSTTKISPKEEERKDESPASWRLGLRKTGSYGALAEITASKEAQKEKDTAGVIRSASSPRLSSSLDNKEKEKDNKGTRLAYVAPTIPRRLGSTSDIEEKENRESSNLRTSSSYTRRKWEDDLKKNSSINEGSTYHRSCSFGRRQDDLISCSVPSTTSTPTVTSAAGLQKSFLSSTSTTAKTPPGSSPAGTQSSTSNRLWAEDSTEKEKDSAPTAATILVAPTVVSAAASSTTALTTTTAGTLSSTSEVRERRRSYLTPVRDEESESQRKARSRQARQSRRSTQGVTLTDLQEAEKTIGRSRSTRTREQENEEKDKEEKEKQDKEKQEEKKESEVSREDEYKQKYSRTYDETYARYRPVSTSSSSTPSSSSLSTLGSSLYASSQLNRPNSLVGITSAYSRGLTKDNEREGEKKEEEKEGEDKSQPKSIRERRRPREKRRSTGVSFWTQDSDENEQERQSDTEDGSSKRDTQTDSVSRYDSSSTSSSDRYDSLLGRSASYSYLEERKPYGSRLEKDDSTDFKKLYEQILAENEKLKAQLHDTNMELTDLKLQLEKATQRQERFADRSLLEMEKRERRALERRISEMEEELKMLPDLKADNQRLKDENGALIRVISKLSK
Put plainly: Activation of MYTP1 phosphorylation at Ser695 residue in phenylephrine-stimulated Wistar rat VSMCs at 50 uM preincubated for 60 mins followed by phenylephrine stimulation and measured upto 30 mins by Western blot analysis. It counts as cell-based. The note with it: VSMC, filed as activator, time 90.0 min.

Series [8] is described as follows: Inhibition of recombinant human full length PI3K p110alpha/[…] alpha activity assessed as PIP3 generation using PI(4,5)P2 (PIP2) as substrate incubated for 3 hrs by competitive binding based colorimetric analysis.
Series [9] deals with T1, Protein phosphatase 1 regulatory subunit 12A (Rattus norvegicus). Kind of series: Activation of MYTP1 phosphorylation at Ser668 residue in phenylephrine-stimulated Wistar rat VSMCs at 50 uM preincubated for 60 mins followed by phenylephrine stimulation and measured upto 30 mins by Western blot analysis. It counts as cell-based. The note with it: VSMC, filed as activator, time 90.0 min.

In series [10] the test system is VSMC. Put plainly: Activation of PKA in isoproterenol-induced Wistar rat VSMCs assessed as fold increase in intracellular cAMP concentration at 50 uM measured 20 mins after ISO stimulation relative to isoproterenol. It counts as cell-based. The note with it: filed as activator.
For series [11], the system named is VSMC. Put plainly: Activation of PKA substrate phosphorylation in Wistar rat VSMCs at 50 uM incubated for 60 mins by Western blot analysis. The series is classed as cell-based. As to conditions: filed as activator.
For series [12], the system named is VSMC. Kind of series: Cytotoxicity against Wistar rat VSMCs assessed as reduction in cell viability at 50 uM incubated for 48 hrs by MTT assay. It counts as toxicity, cell-based. Background: Formazan colour is commonly taken as a measure of viable cells.
The test system of series [13] is VSMC. Kind of series: Inhibition of isoproterenol-induced AKT phosphorylation at Thr308 residue in Wistar rat VSMCs at 50 uM preincubated for 60 mins followed by ISO stimulation and measured upto 30 mins by Western blot analysis. The series is classed as cell-based. As to conditions: time 90.0 min.
In series [14] the test system is VSMC. Put plainly: Activation of HSP90 phosphorylation in Wistar rat VSMCs at 50 uM incubated for 60 mins by Western blot analysis. It counts as cell-based. The note with it: filed as activator.
Series [15] concerns the target T1, Protein phosphatase 1 regulatory subunit 12A (Rattus norvegicus). Put plainly: Activation of MYTP1 phosphorylation at Ser668 residue in Wistar rat VSMCs at 50 uM incubated for 60 mins by Western blot analysis. The series is classed as cell-based. The note with it: VSMC, filed as activator.
The test system of the next series is B16-F10. Put plainly: Activation of PKA substrate phosphorylation in mouse B16-F10 cells incubated for 60 mins by Western blot analysis. It counts as cell-based. The note with it: filed as activator.
Series [16] has as its system VSMC. Kind of series: Activation of PKA substrate phosphorylation in isoproterenol-induced Wistar rat VSMCs at 50 uM preincubated for 60 mins followed by ISO stimulation and measured upto 30 mins by Western blot analysis. As to conditions: filed as activator, time 90.0 min. The series is classed as cell-based.
The test system of series [17] is VSMC. Kind of series: Inhibition of phenylephrine-induced MLC phosphorylation at Ser19 residue in Wistar rat VSMCs at 50 uM preincubated for 60 mins followed by phenylephrine stimulation and measured upto 30 mins by Western blot analysis. The series is classed as cell-based. As to conditions: time 90.0 min.
For series [18], the system named is VSMC. Put plainly: Activation of PKA in isoproterenol-induced Wistar rat VSMCs assessed as increase in intracellular cAMP concentration at 100 uM measured 20 mins after ISO stimulation. As to conditions: filed as activator. The series is classed as cell-based.
Series [19] deals with VSMC. Kind of series: Activation of PKA substrate phosphorylation in Wistar rat VSMCs at 100 uM incubated for 60 mins by Western blot analysis. It counts as cell-based. As to conditions: filed as activator.
Series [20] deals with VSMC. Kind of series: Activation of PKA substrate phosphorylation in isoproterenol-induced Wistar rat VSMCs at 100 uM preincubated for 60 mins followed by ISO stimulation and measured upto 30 mins by Western blot analysis. The series is classed as cell-based. The note with it: filed as activator, time 90.0 min.
Series [21] concerns VSMC. Put plainly: Inhibition of isoproterenol-induced PKA substrate phosphorylation in Wistar rat VSMCs at 10 uM preincubated for 60 mins followed by ISO stimulation and measured upto 30 mins by Western blot analysis. The series is classed as cell-based. The note with it: time 90.0 min.
Series [22] concerns VSMC. Kind of series: Activation of PKA substrate phosphorylation in Wistar rat VSMCs at 10 uM incubated for 60 mins in the presence of IBMX by Western blot analysis. It counts as cell-based. The note with it: filed as activator.
In series [23] the test system is VSMC. Kind of series: Activation of PKA in isoproterenol-induced Wistar rat VSMCs assessed as fold increase in intracellular cAMP concentration at 10 uM measured 20 mins after ISO stimulation. The note with it: filed as activator. It counts as cell-based.
Series [24] deals with VSMC. Kind of series: Activation of PKA substrate phosphorylation in Wistar rat VSMCs at 10 uM incubated for 60 mins by Western blot analysis. The series is classed as cell-based. As to conditions: filed as activator.
Series [25] has as its system VSMC. Kind of series: Inhibition of AKT phosphorylation at Ser473 residue in Wistar rat VSMCs at 10 uM measured upto 60 mins by Western blot analysis. The series is classed as cell-based.

With `CC[C@H](CC(=O)O)c1c2c(c(O)c3c1O[C@H](C)[C@H](C)C3=O)C=CC(C)(C)O2`, the result (in the series with VSMC [1]; in [2]; with VSMC [5]; in the series with VSMC [6]; in series [7]; in series [9]) was Active. Moreover, the outcome (in the series on VSMC [11]; in the series with VSMC [14]; in series [15]; with B16-F10; in the series on VSMC [16]) was Active. In addition, the inhibition result with VSMC [3], with VSMC [13] and in the series on VSMC [17] was “Active” throughout. Also, the Activity result with VSMC [4] was “Dde”; in the series with VSMC [12], 80%. Besides, the pIC50 (in general, the negative decadic logarithm of the IC50, by convention in mol/L) in series [8] is 5.22. Moreover, the fold change (FC) with VSMC [10] is 2.5.
On to `CC(C)Cn1c(=O)n(C)c(=O)c2nc[nH]c21`, for which the outcome in the series on VSMC [5], in the series with VSMC [18], with VSMC [19] and in the series on VSMC [20] was Active.
With `O=S(=O)(NCCNC/C=C/c1ccc(Br)cc1)c1cccc2cnccc12`, in the series with VSMC [21], the inhibition entry is “Active”.
For the compound `O=c1cc(N2CCOCC2)oc2c(-c3ccccc3)cccc12`, the outcome in the series with VSMC [5], in the series on VSMC [22] and in the series on VSMC [24] was Active. Moreover, in the series on VSMC [23], the fold change (FC) worked out at 2. Besides, the inhibition entry in the series on VSMC [25] is “Active”.
